Where “and” joins values, the source holds several entries; their conditions need not be identical. Equal entries are not always repeated. Numbers after ± are expanded uncertainties.

The record followed here is the NIST ThermoML archive (doi:10.1021/acs.jced.7b00372).

The conditions of data set [1]: Liquid, Ebulliometric method (Recirculating still).
The nature of data set [2]: refractive index (Na D-line) (dimensionless). The settings on record: 93 kPa, Liquid, Standard Abbe refractometry.
Data set [3] can be described thus: refractive index (Na D-line) (dimensionless); xn = mol fraction of the nth substance listed. The settings on record: 293.15 K, 93 kPa, Liquid, Standard Abbe refractometry.

A word on the vapor or sublimation pressure: it is the equilibrium pressure above the liquid or solid. In general, refractive index refers to a measure of how strongly the sample bends light. Regarding `Cc1ccccc1C` [1,2-dimethylbenzene], in data set [1] (414.41 K), the “vapor or sublimation pressure” value is reported as 93.13 ± 0.96 kPa. The refractive index in data set [2] (293.15 K) is recorded as 1.5048 ± 0.0004; in data set [2] (298.15 K), 1.5022 ± 0.0004.
`Cc1ccccc1C` [1,2-dimethylbenzene] + COC(=O)OC: the refractive index is listed as 1.377 ± 0.0005 in data set [3] (x1 = 0.045); 1.3961 ± 0.0005 in data set [3] (x1 = 0.1564); 1.3969 ± 0.0005 in data set [3] (x1 = 0.1622); 1.4149 ± 0.0005 in data set [3] (x1 = 0.2752); 1.4272 ± 0.0005 in data set [3] (x1 = 0.36); 1.4397 ± 0.0005 in data set [3] (x1 = 0.4516). Further, the refractive index in data set [3] (x1 = 0.5655) turned out to be 1.4556 ± 0.0005; in data set [3] (x1 = 0.603), 1.4601 ± 0.0005; in data set [3] (x1 = 0.7134), 1.4734 ± 0.0005; in data set [3] (x1 = 0.7602), 1.4795 ± 0.0005; in data set [3] (x1 = 0.8813) it was 1.493 ± 0.0005; in data set [3] (x1 = 0.9276), 1.4973 ± 0.0005. In addition, the refractive index in data set [3] (x1 = 1) turned out to be 1.5048 ± 0.0004.
Regarding `Cc1cccc(C)c1` [1,3-dimethylbenzene], the “vapor or sublimation pressure” value in data set [1] (409.13 K) came out at 93.13 ± 0.96 kPa. Further, the figures for the refractive index in data set [2] (293.15 K) and in data set [2] (298.15 K) were 1.497 ± 0.0004 and 1.4943 ± 0.0004, respectively.
In the case of `Cc1cccc(C)c1` [1,3-dimethylbenzene] + COC(=O)OC, the refractive index is recorded as 1.3769 ± 0.0005 in data set [3] (x1 = 0.0467); 1.3836 ± 0.0005 in data set [3] (x1 = 0.0871); 1.3973 ± 0.0005 in data set [3] (x1 = 0.1737); 1.4021 ± 0.0005 in data set [3] (x1 = 0.2042); 1.4101 ± 0.0005 in data set [3] (x1 = 0.2593); 1.4167 ± 0.0005 in data set [3] (x1 = 0.3033). In addition, the refractive index turned out to be 1.4262 ± 0.0005 in data set [3] (x1 = 0.3719); 1.4359 ± 0.0005 in data set [3] (x1 = 0.4455); 1.439 ± 0.0005 in data set [3] (x1 = 0.4709); 1.4481 ± 0.0005 in data set [3] (x1 = 0.5421); 1.4612 ± 0.0005 in data set [3] (x1 = 0.6549); 1.4738 ± 0.0005 in data set [3] (x1 = 0.7672). Moreover, the refractive index in data set [3] (x1 = 0.8662) came out at 1.4839 ± 0.0005; in data set [3] (x1 = 0.94), 1.4913 ± 0.0005; in data set [3] (x1 = 1) it was 1.497 ± 0.0004.
Take `Cc1ccc(C)cc1` [1,4-dimethylbenzene]: the “vapor or sublimation pressure” value in data set [1] (408.37 K) was determined as 93.13 ± 0.96 kPa. For the same compound, the refractive index in data set [2] (293.15 K) is reported as 1.4956 ± 0.0004; in data set [2] (298.15 K) it was 1.4929 ± 0.0004.
With `Cc1ccc(C)cc1` [1,4-dimethylbenzene] + COC(=O)OC, the refractive index in data set [3] (x1 = 0.0368) came to 1.3752 ± 0.0005; in data set [3] (x1 = 0.0866) it was 1.3835 ± 0.0005; in data set [3] (x1 = 0.157) it was 1.3946 ± 0.0005; in data set [3] (x1 = 0.2639) it was 1.4106 ± 0.0005; in data set [3] (x1 = 0.3598), 1.4241 ± 0.0005; in data set [3] (x1 = 0.4244), 1.4326 ± 0.0005. Besides, the refractive index in data set [3] (x1 = 0.5293) amounted to 1.4457 ± 0.0005; in data set [3] (x1 = 0.6397), 1.4586 ± 0.0005; in data set [3] (x1 = 0.7655), 1.4724 ± 0.0005; in data set [3] (x1 = 0.8832) it was 1.4848 ± 0.0005; in data set [3] (x1 = 0.938), 1.4898 ± 0.0005; in data set [3] (x1 = 1), 1.4956 ± 0.0004.
On to `COC(=O)OC` [dimethyl carbonate], for which the “vapor or sublimation pressure” value in data set [1] (360.73 K) worked out at 93.13 ± 0.96 kPa. Also, the refractive index in data set [2] (293.15 K) is 1.3687 ± 0.0004 and 1.3688 ± 0.0004; in data set [2] (298.15 K), 1.3664 ± 0.0004.
For the compound `COC(=O)OC` [dimethyl carbonate] + CCc1ccccc1, the refractive index in data set [3] (x2 = 0) stood at 1.3688 ± 0.0004.
For the compound `COC(=O)OC` [dimethyl carbonate] + Cc1ccc(C)cc1, the refractive index in data set [3] (x2 = 0) amounted to 1.3687 ± 0.0004.
The same measure, in the same setting: with `COC(=O)OC` [dimethyl carbonate] + Cc1cccc(C)c1 the figure was 1.3688 ± 0.0004.
Still for that read-out and setting: the result for `COC(=O)OC` [dimethyl carbonate] + Cc1ccccc1C reads 1.3688 ± 0.0004.
Consider `CCc1ccccc1` [ethylbenzene], for which the “vapor or sublimation pressure” value in data set [1] (406.23 K) is listed as 93.13 ± 0.96 kPa. Besides, the refractive index in data set [2] (293.15 K) amounted to 1.4956 ± 0.0004; in data set [2] (298.15 K), 1.493 ± 0.0004.
Regarding `CCc1ccccc1` [ethylbenzene] + COC(=O)OC, the refractive index in data set [3] (x1 = 0.0462) is 1.3767 ± 0.0005; in data set [3] (x1 = 0.089), 1.3836 ± 0.0005; in data set [3] (x1 = 0.1753), 1.397 ± 0.0005; in data set [3] (x1 = 0.2701) it was 1.4109 ± 0.0005; in data set [3] (x1 = 0.3564), 1.4232 ± 0.0005; in data set [3] (x1 = 0.4359) it was 1.4335 ± 0.0006. Further, the refractive index in data set [3] (x1 = 0.4448) was found to be 1.4352 ± 0.0005; in data set [3] (x1 = 0.468), 1.4382 ± 0.0005; in data set [3] (x1 = 0.5157) it was 1.4441 ± 0.0005; in data set [3] (x1 = 0.5825), 1.4527 ± 0.0005; in data set [3] (x1 = 0.6639), 1.4617 ± 0.0005; in data set [3] (x1 = 0.7377), 1.4702 ± 0.0005. Besides, the refractive index stood at 1.4815 ± 0.0005 in data set [3] (x1 = 0.852); 1.4847 ± 0.0005 in data set [3] (x1 = 0.8827); 1.4873 ± 0.0005 in data set [3] (x1 = 0.9124); 1.49 ± 0.0005 in data set [3] (x1 = 0.9395); 1.4956 ± 0.0004 in data set [3] (x1 = 1).
